Experimental data taken from patent US7074789B2, “Kinase inhibitors” (Amgen Inc., priority 1999, dated 2006).
Read-outs that look alike come from different tables or passages of the source.

How the values were obtained:
Format in all cases: biochemical
Lck = molecular target: T1, Lck (Homo sapiens, UniProt P06239); assay: Kinase inhibition assay (33P transfer), Lck; details: read-out: Lck-1
T1 construct: Kinases are expressed as either kinase domains or full length constructs; made in house
Summary of the method: (§1)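 33P-ATP transfer to coated synthetic polymer substrates; acid wash (0.5% H3PO4), scintillant, liquid scintillation count. Enzymes: His- or GST-fusion kinases from E. coli or High Five insect cells.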

EGFR = molecular target: T2, EGFR (Homo sapiens, UniProt P00533); assay: Kinase inhibition assay (33P transfer), EGFR; details: Table 2, kinase inhibition class; read-out: EGFR-1
T2 construct: Kinases are expressed as either kinase domains or full length constructs; made in house
Summary of the method: (§2)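 Kinase domains or full-length enzymes, GST- or polyHis-tagged, were expressed in E. coli or baculovirus High Five cells and affinity-purified. Transfer of 33PO4 from ATP onto plate-bound poly(Glu,Tyr) 4:1 or poly(Arg,Ser) 3:1 was counted by liquid scintillation after a 0.5% phosphoric acid wash. IC50 = concentration halving incorporation.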

PDGFRB = molecular target: T3, PDGFRB (Homo sapiens, UniProt P09619); assay: Kinase inhibition assay (33P transfer), PDGFRB; details: read-out: PDGFRB-1
T3 construct: Kinases are expressed as either kinase domains or full length constructs; made in house

Itk = molecular target: T4, Itk (Homo sapiens, UniProt Q08881); assay: Kinase inhibition assay (33P transfer), Itk; details: read-out: Itk-1
T4 construct: Kinases are expressed as either kinase domains or full length constructs; made in house
T4 sequence (Q08881 1-620): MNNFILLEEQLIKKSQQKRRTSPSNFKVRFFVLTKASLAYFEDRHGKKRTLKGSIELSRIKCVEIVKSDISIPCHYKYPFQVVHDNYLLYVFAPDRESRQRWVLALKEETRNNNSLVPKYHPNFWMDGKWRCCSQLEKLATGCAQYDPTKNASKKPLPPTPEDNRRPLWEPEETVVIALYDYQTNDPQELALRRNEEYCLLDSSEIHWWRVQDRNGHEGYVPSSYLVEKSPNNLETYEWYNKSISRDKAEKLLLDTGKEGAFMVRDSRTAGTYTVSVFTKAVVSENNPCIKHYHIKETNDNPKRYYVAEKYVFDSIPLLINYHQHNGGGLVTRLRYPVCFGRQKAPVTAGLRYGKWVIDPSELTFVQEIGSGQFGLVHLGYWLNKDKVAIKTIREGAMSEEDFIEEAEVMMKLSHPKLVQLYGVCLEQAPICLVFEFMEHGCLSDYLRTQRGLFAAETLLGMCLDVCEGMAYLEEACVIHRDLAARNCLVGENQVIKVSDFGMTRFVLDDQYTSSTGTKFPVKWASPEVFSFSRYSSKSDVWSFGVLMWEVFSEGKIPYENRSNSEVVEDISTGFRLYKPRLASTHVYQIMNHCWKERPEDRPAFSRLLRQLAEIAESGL
Summary of the method: as §2

IGFR-1 [1] = molecular target: T5, IGFR-1 (Homo sapiens, UniProt P08069); assay: Kinase inhibition assay, IGFR-1 (Table 2); details: Table 2, kinase inhibition class
T5 construct: Kinases are expressed as either kinase domains or full length constructs; made in house

ErbB2 = molecular target: T6, ErbB2 (Homo sapiens, UniProt P04626); assay: Kinase inhibition assay (33P transfer), ErbB2; details: read-out: ErbB2-2
T6 construct: Kinases are expressed as either kinase domains or full length constructs; made in house
Summary of the method: as §2

c-Met = molecular target: T7, c-Met (Homo sapiens, UniProt P08581); assay: Kinase inhibition assay (33P transfer), c-Met; details: Table 2, kinase inhibition class; read-out: Met-1
T7 construct: Kinases are expressed as either kinase domains or full length constructs; made in house
Summary of the method: as §2

Zap-70 = molecular target: T8, Zap-70 (Homo sapiens, UniProt P43403); assay: Kinase inhibition assay (33P transfer), Zap-70; details: read-out: Zap-1
T8 construct: Kinases are expressed as either kinase domains or full length constructs; made in house
T8 sequence (P43403 1-619): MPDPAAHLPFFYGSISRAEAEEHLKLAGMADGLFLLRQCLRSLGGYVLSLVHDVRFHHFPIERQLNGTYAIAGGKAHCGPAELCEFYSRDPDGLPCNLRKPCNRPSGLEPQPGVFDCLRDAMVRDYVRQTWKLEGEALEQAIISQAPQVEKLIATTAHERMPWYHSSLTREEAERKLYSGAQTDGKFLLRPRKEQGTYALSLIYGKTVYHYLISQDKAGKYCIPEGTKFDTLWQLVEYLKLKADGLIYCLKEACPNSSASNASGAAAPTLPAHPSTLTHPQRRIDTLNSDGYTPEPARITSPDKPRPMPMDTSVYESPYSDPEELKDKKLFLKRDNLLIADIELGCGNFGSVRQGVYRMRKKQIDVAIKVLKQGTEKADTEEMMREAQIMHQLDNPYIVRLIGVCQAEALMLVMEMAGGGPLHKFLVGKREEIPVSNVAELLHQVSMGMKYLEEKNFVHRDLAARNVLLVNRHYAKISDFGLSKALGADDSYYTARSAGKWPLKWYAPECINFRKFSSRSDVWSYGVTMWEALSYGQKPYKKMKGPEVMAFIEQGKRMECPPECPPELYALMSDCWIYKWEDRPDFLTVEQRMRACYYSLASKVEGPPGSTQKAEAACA
Summary of the method: as §1

AKT = molecular target: T9, AKT (Homo sapiens, UniProt Q9Y243); assay: Kinase inhibition assay (33P transfer), AKT; details: Table 2, kinase inhibition class; read-out: AKT3-1
T9 construct: Kinases are expressed as either kinase domains or full length constructs; made in house
Summary of the method: as §1

Kdr = molecular target: T10, Kdr (Homo sapiens, UniProt P35968); assay: Kinase inhibition assay (33P transfer), Kdr; details: read-out: KDR-1
T10 construct: Kinases are expressed as either kinase domains or full length constructs; made in house
Summary of the method: as §1

Tek = molecular target: T11, Tek (Homo sapiens, UniProt Q02763); assay: Kinase inhibition assay (33P transfer), Tek; details: read-out: Tek-1
T11 construct: Kinases are expressed as either kinase domains or full length constructs; made in house
Summary of the method: as §2

IGFR-1 [2] = molecular target: T5, IGFR-1; assay: Kinase inhibition assay (33P transfer), IGFR-1; details: Table 2, kinase inhibition class

T5 sequence (P08069 31-1367): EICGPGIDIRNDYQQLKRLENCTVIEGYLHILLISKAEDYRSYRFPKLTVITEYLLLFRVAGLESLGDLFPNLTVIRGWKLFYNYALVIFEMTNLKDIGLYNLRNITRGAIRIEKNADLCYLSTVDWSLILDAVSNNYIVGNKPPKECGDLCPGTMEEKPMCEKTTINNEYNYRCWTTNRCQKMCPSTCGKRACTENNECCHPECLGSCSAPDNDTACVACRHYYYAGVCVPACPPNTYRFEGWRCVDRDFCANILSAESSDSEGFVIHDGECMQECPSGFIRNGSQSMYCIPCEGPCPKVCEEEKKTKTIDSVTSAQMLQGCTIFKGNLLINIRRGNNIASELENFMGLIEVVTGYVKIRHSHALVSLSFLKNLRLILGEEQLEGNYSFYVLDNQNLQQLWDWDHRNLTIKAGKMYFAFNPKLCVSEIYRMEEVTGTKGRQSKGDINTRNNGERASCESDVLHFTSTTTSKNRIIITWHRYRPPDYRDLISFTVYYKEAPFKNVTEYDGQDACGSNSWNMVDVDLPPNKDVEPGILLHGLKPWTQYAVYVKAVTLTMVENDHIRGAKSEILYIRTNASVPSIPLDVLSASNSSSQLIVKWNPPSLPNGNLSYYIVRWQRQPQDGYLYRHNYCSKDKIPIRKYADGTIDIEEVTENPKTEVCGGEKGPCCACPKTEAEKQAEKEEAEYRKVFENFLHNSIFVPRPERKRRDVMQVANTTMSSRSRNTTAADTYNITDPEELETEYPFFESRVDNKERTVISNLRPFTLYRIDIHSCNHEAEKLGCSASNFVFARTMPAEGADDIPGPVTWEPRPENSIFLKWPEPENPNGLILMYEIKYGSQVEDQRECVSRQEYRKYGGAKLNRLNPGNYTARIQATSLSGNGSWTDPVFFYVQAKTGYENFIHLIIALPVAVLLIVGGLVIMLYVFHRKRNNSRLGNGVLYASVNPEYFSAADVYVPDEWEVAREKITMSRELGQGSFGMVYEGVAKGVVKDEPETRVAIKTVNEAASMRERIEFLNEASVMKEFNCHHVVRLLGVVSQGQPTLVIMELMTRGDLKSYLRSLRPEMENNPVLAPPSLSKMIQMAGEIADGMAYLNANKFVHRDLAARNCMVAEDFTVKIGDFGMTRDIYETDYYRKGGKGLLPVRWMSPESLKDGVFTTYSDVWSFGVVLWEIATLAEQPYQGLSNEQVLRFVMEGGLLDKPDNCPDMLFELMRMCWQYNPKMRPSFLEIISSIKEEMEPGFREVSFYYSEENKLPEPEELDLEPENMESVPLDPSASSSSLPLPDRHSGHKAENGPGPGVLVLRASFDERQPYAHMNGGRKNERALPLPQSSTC
T6 sequence (P04626 23-1255, species assumed): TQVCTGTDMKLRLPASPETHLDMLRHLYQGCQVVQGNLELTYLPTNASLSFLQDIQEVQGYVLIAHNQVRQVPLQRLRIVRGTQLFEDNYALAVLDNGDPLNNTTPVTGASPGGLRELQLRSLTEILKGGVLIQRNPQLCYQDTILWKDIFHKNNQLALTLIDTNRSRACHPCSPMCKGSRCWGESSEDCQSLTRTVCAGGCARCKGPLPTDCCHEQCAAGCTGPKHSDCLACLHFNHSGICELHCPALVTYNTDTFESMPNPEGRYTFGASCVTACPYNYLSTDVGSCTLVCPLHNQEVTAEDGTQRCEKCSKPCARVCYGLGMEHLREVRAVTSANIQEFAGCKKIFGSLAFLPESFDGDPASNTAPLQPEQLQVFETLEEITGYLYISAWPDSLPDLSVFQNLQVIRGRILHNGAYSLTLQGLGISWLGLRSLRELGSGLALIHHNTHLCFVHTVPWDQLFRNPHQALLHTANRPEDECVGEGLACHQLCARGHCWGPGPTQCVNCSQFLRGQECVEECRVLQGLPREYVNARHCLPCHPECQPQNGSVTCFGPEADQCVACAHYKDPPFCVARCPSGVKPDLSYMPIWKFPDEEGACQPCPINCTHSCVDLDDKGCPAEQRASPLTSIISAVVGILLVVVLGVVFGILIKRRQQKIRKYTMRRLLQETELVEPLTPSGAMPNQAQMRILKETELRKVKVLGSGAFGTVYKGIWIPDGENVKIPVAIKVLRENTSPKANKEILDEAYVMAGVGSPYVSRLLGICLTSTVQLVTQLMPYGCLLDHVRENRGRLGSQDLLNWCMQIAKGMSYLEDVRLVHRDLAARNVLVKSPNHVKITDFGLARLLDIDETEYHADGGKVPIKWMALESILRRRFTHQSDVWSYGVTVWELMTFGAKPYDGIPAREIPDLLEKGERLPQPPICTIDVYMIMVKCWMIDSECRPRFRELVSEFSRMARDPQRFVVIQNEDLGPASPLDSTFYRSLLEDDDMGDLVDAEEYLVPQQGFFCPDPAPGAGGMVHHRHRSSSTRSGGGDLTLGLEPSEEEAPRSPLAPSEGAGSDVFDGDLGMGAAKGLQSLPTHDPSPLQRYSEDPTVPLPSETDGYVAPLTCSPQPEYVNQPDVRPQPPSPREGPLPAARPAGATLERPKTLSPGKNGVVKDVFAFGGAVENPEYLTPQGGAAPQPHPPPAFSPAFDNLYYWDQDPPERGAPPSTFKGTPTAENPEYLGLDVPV
T9 sequence (Q9Y243 whole entry, the tested form may be a part): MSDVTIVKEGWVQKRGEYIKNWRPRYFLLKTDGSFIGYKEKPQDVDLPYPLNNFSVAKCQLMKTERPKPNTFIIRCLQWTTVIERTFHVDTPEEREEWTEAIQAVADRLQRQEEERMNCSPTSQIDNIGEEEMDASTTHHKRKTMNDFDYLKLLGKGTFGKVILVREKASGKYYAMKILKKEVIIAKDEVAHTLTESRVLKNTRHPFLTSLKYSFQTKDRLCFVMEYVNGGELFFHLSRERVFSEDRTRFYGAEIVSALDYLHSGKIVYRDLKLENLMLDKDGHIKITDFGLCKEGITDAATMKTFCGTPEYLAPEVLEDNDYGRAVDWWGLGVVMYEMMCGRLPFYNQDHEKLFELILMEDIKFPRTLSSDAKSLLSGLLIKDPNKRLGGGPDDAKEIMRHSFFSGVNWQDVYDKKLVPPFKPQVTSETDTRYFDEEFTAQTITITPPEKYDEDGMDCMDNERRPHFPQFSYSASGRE
T2 sequence (P00533 25-1210, species assumed): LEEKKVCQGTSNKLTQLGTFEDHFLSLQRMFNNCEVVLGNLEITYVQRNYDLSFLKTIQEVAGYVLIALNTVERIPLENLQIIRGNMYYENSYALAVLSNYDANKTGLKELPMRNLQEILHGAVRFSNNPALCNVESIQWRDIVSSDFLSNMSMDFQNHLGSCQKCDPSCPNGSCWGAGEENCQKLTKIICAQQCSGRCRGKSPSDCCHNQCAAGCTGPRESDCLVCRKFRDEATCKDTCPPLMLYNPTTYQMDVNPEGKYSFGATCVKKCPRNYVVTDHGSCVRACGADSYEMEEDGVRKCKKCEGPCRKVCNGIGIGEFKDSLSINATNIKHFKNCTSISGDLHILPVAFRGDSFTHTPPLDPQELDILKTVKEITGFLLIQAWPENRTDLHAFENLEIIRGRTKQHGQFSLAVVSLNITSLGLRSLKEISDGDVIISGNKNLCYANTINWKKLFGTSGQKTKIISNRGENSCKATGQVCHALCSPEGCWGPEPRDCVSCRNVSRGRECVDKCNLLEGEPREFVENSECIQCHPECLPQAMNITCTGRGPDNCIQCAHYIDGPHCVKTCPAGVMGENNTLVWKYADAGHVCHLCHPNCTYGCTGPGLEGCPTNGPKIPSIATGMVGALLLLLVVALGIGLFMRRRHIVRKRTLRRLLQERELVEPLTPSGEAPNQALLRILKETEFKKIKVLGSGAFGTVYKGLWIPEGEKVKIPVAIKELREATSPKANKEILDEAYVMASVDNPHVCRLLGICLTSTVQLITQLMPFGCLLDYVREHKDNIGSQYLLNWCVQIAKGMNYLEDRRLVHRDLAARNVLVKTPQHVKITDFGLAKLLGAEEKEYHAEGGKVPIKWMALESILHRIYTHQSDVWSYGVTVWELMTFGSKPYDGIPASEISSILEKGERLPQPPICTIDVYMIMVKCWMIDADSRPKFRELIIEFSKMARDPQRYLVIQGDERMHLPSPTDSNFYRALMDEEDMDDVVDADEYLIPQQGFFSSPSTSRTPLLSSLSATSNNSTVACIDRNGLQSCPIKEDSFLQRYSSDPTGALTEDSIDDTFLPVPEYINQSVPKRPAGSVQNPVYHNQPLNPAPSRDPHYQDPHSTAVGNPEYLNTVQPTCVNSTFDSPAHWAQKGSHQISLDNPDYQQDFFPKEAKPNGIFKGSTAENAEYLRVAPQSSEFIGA
T1 sequence (P06239 whole entry, species assumed, the tested form may be a part): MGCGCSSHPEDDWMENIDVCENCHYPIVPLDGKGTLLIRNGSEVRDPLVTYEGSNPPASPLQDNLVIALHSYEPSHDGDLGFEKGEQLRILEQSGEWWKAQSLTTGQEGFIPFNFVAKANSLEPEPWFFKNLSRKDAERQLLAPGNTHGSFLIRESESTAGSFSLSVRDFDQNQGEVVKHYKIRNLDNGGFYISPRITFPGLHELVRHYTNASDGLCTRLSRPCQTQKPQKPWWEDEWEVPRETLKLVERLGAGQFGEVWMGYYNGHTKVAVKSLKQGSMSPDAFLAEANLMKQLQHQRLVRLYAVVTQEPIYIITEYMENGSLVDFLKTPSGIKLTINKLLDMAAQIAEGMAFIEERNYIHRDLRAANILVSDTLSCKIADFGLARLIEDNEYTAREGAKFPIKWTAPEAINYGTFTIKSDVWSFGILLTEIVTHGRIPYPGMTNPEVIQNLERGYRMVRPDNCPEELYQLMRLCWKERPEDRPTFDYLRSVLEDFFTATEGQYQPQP

| SMILES | IC50 (Lck) [µM] | IC50 (EGFR) [µM] | IC50 (PDGFRB) [µM] | IC50 (Itk) [µM] | IC50 (IGFR-1 [1]) [µM] | IC50 (ErbB2) [µM] | IC50 (c-Met) [µM] | IC50 (Zap-70) [µM] | IC50 (AKT) [µM] | IC50 (Kdr) [µM] | IC50 (Lck; Table 3) [µM] | IC50 (Itk; Table 3) [µM] | IC50 (Zap-70; Table 3) [µM] | IC50 (Tek) [µM] | IC50 (Kdr; Table 3) [µM] | IC50 (IGFR-1 [2]) [µM] |
| --- | --- | --- | --- | --- | --- | --- | --- | --- | --- | --- | --- | --- | --- | --- | --- | --- |
| COc1cc(Nc2ncnc(-n3c(NCc4ccc(Cl)cc4C)nc4ccccc43)n2)cc(OC)c1OC [Compound 597] | 0.752 to 4.51 | 6.58 to 8.46 | 4.51 to 6.58 | > 8.46 | 6.58 to 8.46 | 0.752 to 4.51 | > 8.46 | > 8.46 | 4.51 to 6.58 | 0.752 to 4.51 |  |  |  |  |  |  |
| COc1cc(Nc2ncnc(Nc3cc(OC)c(OC)c(OC)c3)n2)ccc1OCCN1CCOCC1 [Compound 601] | 0.78 to 4.68 | 0.78 to 4.68 | 0.78 to 4.68 | > 8.78 | > 8.78 | 0.78 to 4.68 | > 8.78 | > 8.78 | > 8.78 | 4.68 to 6.83 |  |  |  |  |  |  |
| COc1ccc(Nc2ncnc(Nc3cc(OC)c(OC)c(OC)c3)n2)cc1OCCN1CCOCC1 [Compound 599] | 0.78 to 4.68 | 6.83 to 8.78 | 0.78 to 4.68 | > 8.78 | > 8.78 | 4.68 to 6.83 | > 8.78 | > 8.78 | > 8.78 | 4.68 to 6.83 |  |  |  |  |  |  |
| COc1cc(Nc2ncnc(NC(=O)NCc3ccccc3)n2)cc(OC)c1OC [Compound 660] | 0.975 to 5.85 | 0.975 to 5.85 | > 11 | > 11 | > 11 | 5.85 to 8.53 | > 11 | > 11 | > 11 | > 11 |  |  |  |  |  |  |
| COc1cc(Nc2ncnc(Nc3ccc(NC(C)=O)c(C(F)(F)F)c3)n2)cc(OC)c1OC [Compound 617] | 0.836 to 5.02 | 5.02 to 7.32 | 0.836 to 5.02 | > 9.41 | 5.02 to 7.32 | > 9.41 | > 9.41 | > 9.41 | > 9.41 | 0.836 to 5.02 |  |  |  |  |  |  |
| COC(=O)c1ccc(-c2cc(Nc3ncnc(Nc4cccc(CC(=O)O)c4)n3)[nH]n2)cc1 [Compound 604] | 0.898 to 5.39 | 0.898 to 5.39 | 0.898 to 5.39 | 0.898 to 5.39 | 0.898 to 5.39 | 0.898 to 5.39 | < 0.898 | 5.39 to 7.86 | 5.39 to 7.86 | 0.898 to 5.39 |  |  |  |  |  |  |
| COc1cc(Nc2ncnc(-n3c(NCc4ccc(C(F)(F)F)cc4)nc4ccccc43)n2)cc(OC)c1OC [Compound 598] | > 8.16 | > 8.16 | > 8.16 | > 8.16 | > 8.16 | 6.35 to 8.16 | > 8.16 | > 8.16 | > 8.16 | 0.725 to 4.35 |  |  |  |  |  |  |
| COc1cc(Nc2ncnc(NC(=O)NCCc3ccccc3)n2)cc(OC)c1OC [Compound 661] | > 10.6 | > 10.6 | > 10.6 | > 10.6 | > 10.6 | > 10.6 | > 10.6 | > 10.6 | > 10.6 | 0.942 to 5.65 |  |  |  |  |  |  |
| COc1ccc(CNc2nc3ccccc3n2-c2ncnc(Nc3cc(OC)c(OC)c(OC)c3)n2)cc1OC [Compound 596] | > 8.28 | 4.42 to 6.44 | 4.42 to 6.44 | > 8.28 | > 8.28 | 0.736 to 4.42 | > 8.28 | > 8.28 | > 8.28 | 6.44 to 8.28 |  |  |  |  |  |  |
| CC(C)(C)OC(=O)Nc1ccc(Nc2ncnc(-c3ccccc3)n2)cc1 [Compound 19] |  | > 12.4 |  |  |  |  | > 12.4 |  | > 12.4 |  | > 12.4 | > 12.4 | 6.6 to 9.63 | > 12.4 | 6.6 to 9.63 | 6.6 to 9.63 |
| COc1ccccc1Nc1ncnc(-c2ccccc2)n1 [Compound 12] |  | > 16.2 |  |  |  |  | > 16.2 |  | > 16.2 |  | > 16.2 | > 16.2 | > 16.2 | > 16.2 | 12.6 to 16.2 | > 16.2 |
